Tests used:
Recombinant EphB2 = target: T1, Recombinant EphB2 (Homo sapiens, UniProt P29323); experiment: EphB2 assay (33P incorporation into poly GT, filter plate); type: biochemical; settings: read-out: EphB2 potency IC50
T1 construct: purchased Carna 08-129
T1 sequence (P29323 19-986 isoform P29323-2 limits assumed): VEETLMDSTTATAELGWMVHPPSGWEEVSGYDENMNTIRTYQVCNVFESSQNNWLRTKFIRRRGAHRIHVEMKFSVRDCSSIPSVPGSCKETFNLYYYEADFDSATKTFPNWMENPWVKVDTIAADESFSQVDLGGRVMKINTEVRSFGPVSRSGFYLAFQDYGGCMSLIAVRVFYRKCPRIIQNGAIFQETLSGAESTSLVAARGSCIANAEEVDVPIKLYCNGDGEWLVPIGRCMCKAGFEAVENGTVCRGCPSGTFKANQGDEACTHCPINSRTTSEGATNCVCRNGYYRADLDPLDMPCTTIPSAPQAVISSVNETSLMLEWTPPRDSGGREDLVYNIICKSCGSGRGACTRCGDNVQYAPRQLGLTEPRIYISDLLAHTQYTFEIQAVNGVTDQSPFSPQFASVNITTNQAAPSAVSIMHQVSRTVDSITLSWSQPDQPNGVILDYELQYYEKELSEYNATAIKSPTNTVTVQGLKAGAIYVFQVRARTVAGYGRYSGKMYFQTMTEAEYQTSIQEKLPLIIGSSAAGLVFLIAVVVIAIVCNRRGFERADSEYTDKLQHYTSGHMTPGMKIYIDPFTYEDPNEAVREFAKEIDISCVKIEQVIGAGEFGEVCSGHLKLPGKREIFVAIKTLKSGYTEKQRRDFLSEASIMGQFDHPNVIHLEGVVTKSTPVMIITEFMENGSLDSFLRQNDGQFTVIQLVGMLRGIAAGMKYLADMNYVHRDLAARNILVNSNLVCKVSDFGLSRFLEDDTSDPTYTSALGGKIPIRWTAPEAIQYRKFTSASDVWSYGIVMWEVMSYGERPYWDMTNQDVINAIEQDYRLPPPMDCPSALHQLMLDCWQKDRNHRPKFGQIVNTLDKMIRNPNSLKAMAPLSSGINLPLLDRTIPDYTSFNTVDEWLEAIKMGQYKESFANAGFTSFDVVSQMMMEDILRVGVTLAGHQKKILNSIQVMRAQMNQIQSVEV
Description: The principle of the assay consists of the measurement of incorporated ^33P into the substrate poly GT when phosphorylated by the enzyme EphB2 using [^33P]-γ-ATP and ATP. Unincorporated ^33P is removed by loading the samples on a filter plate (using a harvester, Perkin Elmer) and 6 subsequent washing steps. ^33P incorporated in polyGT is measured on a Topcount after addition of microscint to the filter plates (Perkin Elmer).
Recombinant EphB2 (Carna Cat#08-129, 0.6 ng per well) was incubated with 0.05 mg/mL Poly(Glu,Tyr)sodium salt (4:1), MW 20 000-50 000 (Sigma catalog number P0275) in kinase reaction buffer (10 mM MOPS pH 7.2, 5 mM DTT, 0.01% Triton-X100, 5 mM MnCl2, 0.5 mM Na3VO4, 5 mM beta-glycerolphosphate), 0.5 μM non-radioactive ATP, 0.25 μCi/25 μl ^33P-gamma-ATP (Perkin Elmer, catalog number NEG602K) final concentrations with or without 5 μL containing test compound or vehicle (DMSO, 1% final concentration), in a total volume of 25 μL, in a polypropylene 96-well plate (Greiner, V-bottom). After 45 min at 30° C., reactions were stopped by adding of 25 μL/well of 150 mM phosphoric acid. The experiment was then conducted as described for EphA7. The ability of a test compound to inhibit the kinase activity was determined using counts per minutes (cpm) measured by the Topcount as:
Cpm (cpd): cpm determined for sample with test compound present
Cpm (control): cpm determined for sample with positive control inhibitor (10 μM staurosporine)
Cpm (vehicle): cpm determined in the presence of vehicle (1% DMSO)
Dose dilution series were prepared for the compounds enabling the testing of dose-response effects in the EphB2 assay and the calculation of the IC50 for each compound. Each compound was routinely tested at concentration of 20 μM followed by a 1/5 serial dilution, 10 points in a final concentration of 1% DMSO. When potency of compound series increased, more dilutions may be prepared and/or the top concentration may be lowered (e.g. 5 μM, 1 μM).

EphA2 = target: T2, EphA2 (UniProt Ref: P29317) (Homo sapiens, UniProt P29317); experiment: EphA2 assay (Reaction Biology HotSpot radioactive kinase assay); type: biochemical; settings: ATP 10 μM; read-out: EphA2 potency IC50
T2 construct: purchased Reaction Biology
In short: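 Radiometric HotSpot assay measuring ^33P incorporation from [^33P]-γ-ATP into poly[Glu:Tyr] (4:1) (0.2 mg/mL) with 10 μM ATP. IC50 from serial 1/3 dilutions starting at 10 or 3 μM.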

T2 sequence (P29317 24-976): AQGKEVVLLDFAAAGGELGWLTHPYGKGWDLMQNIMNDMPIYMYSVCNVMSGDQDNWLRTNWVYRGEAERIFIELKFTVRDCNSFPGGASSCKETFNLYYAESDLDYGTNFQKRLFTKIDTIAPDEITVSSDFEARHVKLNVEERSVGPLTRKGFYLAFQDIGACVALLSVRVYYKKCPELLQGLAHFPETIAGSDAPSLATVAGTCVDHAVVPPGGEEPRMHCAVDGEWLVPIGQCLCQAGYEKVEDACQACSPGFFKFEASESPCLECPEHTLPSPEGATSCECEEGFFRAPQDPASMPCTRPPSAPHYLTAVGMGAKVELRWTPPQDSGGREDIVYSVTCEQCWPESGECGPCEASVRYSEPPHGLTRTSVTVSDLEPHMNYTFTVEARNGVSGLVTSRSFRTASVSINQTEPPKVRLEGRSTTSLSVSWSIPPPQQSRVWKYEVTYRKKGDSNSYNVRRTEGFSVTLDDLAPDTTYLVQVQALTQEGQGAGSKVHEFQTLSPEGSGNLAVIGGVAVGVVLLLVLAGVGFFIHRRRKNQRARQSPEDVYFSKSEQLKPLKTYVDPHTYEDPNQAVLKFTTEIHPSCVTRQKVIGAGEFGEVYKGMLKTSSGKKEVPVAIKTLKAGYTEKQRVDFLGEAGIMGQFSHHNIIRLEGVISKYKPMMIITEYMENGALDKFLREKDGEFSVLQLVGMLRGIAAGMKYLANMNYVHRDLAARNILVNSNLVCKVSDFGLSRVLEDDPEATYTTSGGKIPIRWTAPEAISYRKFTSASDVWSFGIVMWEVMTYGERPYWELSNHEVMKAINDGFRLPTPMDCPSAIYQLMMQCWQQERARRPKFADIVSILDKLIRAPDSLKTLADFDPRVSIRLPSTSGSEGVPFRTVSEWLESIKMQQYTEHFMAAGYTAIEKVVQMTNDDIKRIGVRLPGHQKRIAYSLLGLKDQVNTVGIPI

## Cc1ccc(NC(=O)c2cccc(C(F)(F)F)c2)cc1-c1ccc2c(C(O)CN3CCOCC3)n[nH]c2n1 (stereo not drawn) [Compound 2, N-{3-[3-(1-Hydroxy-2-morpholin-4-yl-ethyl)-1H-pyrazolo[3,4-b]pyridin-6-yl]-4-methyl-phenyl}-3-trifluoromethyl-benzamide]
Recombinant EphB2
  IC50: 25 to 50 nM
EphA2
  IC50: 50 to 100 nM

## Cc1cccc(C(=O)Nc2ccc(C)c(-c3ccc4c(C(O)CN5CCOCC5)n[nH]c4n3)c2)c1 (stereo not drawn) [Compound 3, N-{3-[3-(1-Hydroxy-2-morpholin-4-yl-ethyl)-1H-pyrazolo[3,4-b]pyridin-6-yl]-4-methyl-phenyl}-3-methyl-benzamide]
Recombinant EphB2
  IC50: 50 to 100 nM

## COc1cc(OC)cc(C(=O)Nc2ccc(C)c(-c3ccc4c(C(O)CN5CCOCC5)n[nH]c4n3)c2)c1 (stereo not drawn) [Compound 4, N-{3-[3-(1-Hydroxy-2-morpholin-4-yl-ethyl)-1H-pyrazolo[3,4-b]pyridin-6-yl]-4-methyl-phenyl}-3,5-dimethoxy-benzamide]
Recombinant EphB2
  IC50: 50 to 100 nM
EphA2
  IC50: > 100 nM

## Cc1ccc(C(=O)Nc2cccc(C(F)(F)F)c2)cc1-c1ccc2c(C(O)CN3CCOCC3)n[nH]c2n1 (stereo not drawn) [Compound 5, 3-[3-(1-Hydroxy-2-morpholin-4-yl-ethyl)-1H-pyrazolo[3,4-b]pyridin-6-yl]-4-methyl-N-(3-trifluoromethyl-phenyl)-benzamide]
Recombinant EphB2
  IC50: > 100 nM
EphA2
  IC50: 0.01 to 25 nM

## Cc1ccc(NC(=O)c2cccc(N(C)C)c2)cc1-c1ccc2c(C(O)CN3CCOCC3)n[nH]c2n1 (stereo not drawn) [Compound 6, 3-Dimethylamino-N-{3-[3-(1-hydroxy-2-morpholin-4-yl-ethyl)-1H-pyrazolo[3,4-b]pyridin-6-yl]-4-methyl-phenyl}-benzamide]
Recombinant EphB2
  IC50: 25 to 50 nM
EphA2
  IC50: 50 to 100 nM

## COc1cc(OC)cc(C(=O)Nc2ccc(C)c(-c3ccc4c(C(C)O)n[nH]c4n3)c2)c1 (stereo not drawn) [Compound 9, N-{3-[3-(1-Hydroxy-ethyl)-1H-pyrazolo[3,4-b]pyridin-6-yl]-4-methyl-phenyl}-3,5-dimethoxy-benzamide]
Recombinant EphB2
  IC50: 25 to 50 nM
EphA2
  IC50: 25 to 50 nM

## COc1cc(OC)cc(C(=O)Nc2ccc(C)c(-c3ccc4c(C)n[nH]c4n3)c2)c1 [Compound 11, 3,5-Dimethoxy-N-[4-methyl-3-(3-methyl-1H-pyrazolo[3,4-b]pyridin-6-yl)-phenyl]-benzamide]
Recombinant EphB2
  IC50: 0.01 to 25 nM
EphA2
  IC50: 0.01 to 25 nM

## CCc1n[nH]c2nc(-c3cc(NC(=O)c4cc(OC)cc(OC)c4)cnc3C)ccc12 [Compound 13, N-[5-(3-Ethyl-1H-pyrazolo[3,4-b]pyridin-6-yl)-6-methyl-pyridin-3-yl]-3,5-dimethoxy-benzamide]
Recombinant EphB2
  IC50: 50 to 100 nM
EphA2
  IC50: 50 to 100 nM

## Cc1cc(C)cc(C(=O)Nc2ccc(C)c(-c3ccc4c(CO)n[nH]c4n3)c2)c1 [Compound 16, N-[3-(3-Hydroxymethyl-1H-pyrazolo[3,4-b]pyridin-6-yl)-4-methyl-phenyl]-3,5-dimethyl-benzamide]
Recombinant EphB2
  IC50: 0.01 to 25 nM
EphA2
  IC50: 0.01 to 25 nM

## COc1cc(OC)cc(C(=O)Nc2cnc(C)c(-c3ccc4c(C)n[nH]c4n3)c2)c1 [Compound 17, 3,5-Dimethoxy-N-[6-methyl-5-(3-methyl-1H-pyrazolo[3,4-b]pyridin-6-yl)-pyridin-3-yl]-benzamide]
Recombinant EphB2
  IC50: 25 to 50 nM
EphA2
  IC50: 50 to 100 nM

## CCc1n[nH]c2nc(-c3cc(NC(=O)c4cc(C)cc(OCCN5CCOCC5)c4)ccc3C)ccc12 [Compound 20, N-[3-(3-Ethyl-1H-pyrazolo[3,4-b]pyridin-6-yl)-4-methyl-phenyl]-3-methyl-5-(2-morpholin-4-yl-ethoxy)-benzamide]
Recombinant EphB2
  IC50: 0.01 to 25 nM
EphA2
  IC50: 0.01 to 25 nM

## CCc1n[nH]c2nc(-c3cc(NC(=O)c4cc(C)cc(OCCOC)c4)ccc3C)ccc12 [Compound 21, N-[3-(3-Ethyl-1H-pyrazolo[3,4-b]pyridin-6-yl)-4-methyl-phenyl]-3-(2-methoxy-ethoxy)-5-methyl-benzamide]
Recombinant EphB2
  IC50: 0.01 to 25 nM
EphA2
  IC50: 25 to 50 nM

## COc1cc(OC)cc(C(=O)Nc2ccc(C)c(-c3ccc4c(C5(O)CC5)n[nH]c4n3)c2)c1 [Compound 29, N-{3-[3-(1-Hydroxy-cyclopropyl)-1H-pyrazolo[3,4-b]pyridin-6-yl]-4-methyl-phenyl}-3,5-dimethoxy-benzamide]
Recombinant EphB2
  IC50: 0.01 to 25 nM
EphA2
  IC50: 50 to 100 nM

## Cc1ccc(NC(=O)c2cccc(C(F)(F)F)c2)cc1-c1ccc2c(C(C)O)n[nH]c2n1 (stereo not drawn) [Compound 35, N-{3-[3-(1-Hydroxy-ethyl)-1H-pyrazolo[3,4-b]pyridin-6-yl]-4-methyl-phenyl}-3-trifluoromethyl-benzamide]
Recombinant EphB2
  IC50: 50 to 100 nM
EphA2
  IC50: 25 to 50 nM

## CCc1n[nH]c2nc(-c3cc(NC(=O)c4cc(OC)cc(C(F)(F)F)c4)cnc3C)ccc12 [Compound 49, N-[5-(3-Ethyl-1H-pyrazolo[3,4-b]pyridin-6-yl)-6-methyl-pyridin-3-yl]-3-methoxy-5-trifluoromethyl-benzamide]
Recombinant EphB2
  IC50: > 100 nM

## CCc1n[nH]c2nc(-c3cc(NC(=O)c4cc(C)cc(C)c4)cnc3C)ccc12 [Compound 50, N-[5-(3-Ethyl-1H-pyrazolo[3,4-b]pyridin-6-yl)-6-methyl-pyridin-3-yl]-3,5-dimethyl-benzamide]
Recombinant EphB2
  IC50: > 100 nM
EphA2
  IC50: 50 to 100 nM

## Cc1ccc(NC(=O)c2cccc(C(F)(F)F)c2)cc1-c1ccc2c([C@H](C)O)n[nH]c2n1 [Compound 55, N-{3-[3-((S)-1-Hydroxy-ethyl)-1H-pyrazolo[3,4-b]pyridin-6-yl]-4-methyl-phenyl}-3-trifluoromethyl-benzamide]
Recombinant EphB2
  IC50: 0.01 to 25 nM
EphA2
  IC50: 0.01 to 25 nM

## Cc1ccc(NC(=O)c2cccc(C(F)(F)F)c2)cc1-c1cc(C)c2c(N)n[nH]c2n1 [Compound A, N-(3-(3-amino-4-methyl-1H-pyrazolo[3,4-b]pyridin-6-yl)-4-methylphenyl)-3-(trifluoromethyl)benzamide]
Recombinant EphB2
  IC50: 0.01 to 25 nM

Source: patent publication US9062051B2, “Compounds and pharmaceutical compositions thereof for the treatment of proliferative disorders” (GALAPAGOS NV, priority 2014, dated 2015)
